In patent US8772343B2, “Chemical compounds” (Pfizer Limited, priority 2010, dated 2014):

target: T1, Nav1.7 (or SCN9A) channel (Homo sapiens, UniProt Q15858); assay: Nav1.7 Ionworks Quattro automated electrophysiology in HEK cells expressing hSCN9A; assay type: cell-based; conditions: estimated IC50, values marked (IW), Ionworks Quattro assay, read-out: Nav1.7 EIC50 (IW)
T1 construct: expressed in transfected cells
Protocol: The ability of the compounds of formula (I) to block the Nav1.7 (or SCN9A) channel were measured using the assay described below. Human Embryonic Kidney (HEK) cells were transfected with an hSCN9A construct using lipofectamine reagent (Invitrogen), using standard techniques. Cells stably expressing the hSCN9A constructs were identified by their resistance to G-418 (400 μg/ml). Clones were screened for expression using the whole-cell voltage-clamp technique. HEK cells stably transfected with hSCN9A were maintained in DMEM medium supplemented with 10% heat-inactivated fetal bovine serum and 400 μg/ml G-418 in an incubator at 37° C. with a humidified atmosphere of 10% CO2. For HTS, cells were harvested from flasks by trypsinization and replated in an appropriate multi-well plate (typically 96 or 384 wells/plate) such that confluence would be achieved within 24 hours of plating. For electrophysiological studies, cells were removed from the culture flask by brief trypsinization and re-plated at low density onto glass cover slips. Cells were typically used for electrophysiological experiments within 24 to 72 hours after plating. Electrophysiological assays were also conducted using the Ionworks Quattro automated electrophysiological platform (Molecular Devices Corp). Intracellular and extracellular solutions were as described above with the following changes, 120 μg/ml amphotericin was added to the intracellular solution to perforate the membrane and allow electrical access to the cells. hSCN9A cells were grown and harvested as for PatchXpress and cells were resuspended in extracellular solution at a concentration of 1×10^6 cells/ml. The onboard liquid handling facility of the Ionworks Quattro was used for dispensing cells and application of test compounds. A voltage protocol was then applied that comprised of a voltage step to fully inactivate the sodium channels, followed by a brief hyperpolarized recovery period to allow partial recovery from inactivation for unblocked sodium channels, followed by a test depolarized voltage step to assess magnitude of inhibition by test compound. Compound effect was determined based on current amplitude difference between the pre-compound addition and post-compound addition scans. Compounds of the Examples were tested in the assays described above and found to have the Nav1.7 EIC50 (uM) values specified in the table below. All data are derived from the PatchXpress assay unless expressly stated otherwise.

T1 sequence (Q15858 whole entry): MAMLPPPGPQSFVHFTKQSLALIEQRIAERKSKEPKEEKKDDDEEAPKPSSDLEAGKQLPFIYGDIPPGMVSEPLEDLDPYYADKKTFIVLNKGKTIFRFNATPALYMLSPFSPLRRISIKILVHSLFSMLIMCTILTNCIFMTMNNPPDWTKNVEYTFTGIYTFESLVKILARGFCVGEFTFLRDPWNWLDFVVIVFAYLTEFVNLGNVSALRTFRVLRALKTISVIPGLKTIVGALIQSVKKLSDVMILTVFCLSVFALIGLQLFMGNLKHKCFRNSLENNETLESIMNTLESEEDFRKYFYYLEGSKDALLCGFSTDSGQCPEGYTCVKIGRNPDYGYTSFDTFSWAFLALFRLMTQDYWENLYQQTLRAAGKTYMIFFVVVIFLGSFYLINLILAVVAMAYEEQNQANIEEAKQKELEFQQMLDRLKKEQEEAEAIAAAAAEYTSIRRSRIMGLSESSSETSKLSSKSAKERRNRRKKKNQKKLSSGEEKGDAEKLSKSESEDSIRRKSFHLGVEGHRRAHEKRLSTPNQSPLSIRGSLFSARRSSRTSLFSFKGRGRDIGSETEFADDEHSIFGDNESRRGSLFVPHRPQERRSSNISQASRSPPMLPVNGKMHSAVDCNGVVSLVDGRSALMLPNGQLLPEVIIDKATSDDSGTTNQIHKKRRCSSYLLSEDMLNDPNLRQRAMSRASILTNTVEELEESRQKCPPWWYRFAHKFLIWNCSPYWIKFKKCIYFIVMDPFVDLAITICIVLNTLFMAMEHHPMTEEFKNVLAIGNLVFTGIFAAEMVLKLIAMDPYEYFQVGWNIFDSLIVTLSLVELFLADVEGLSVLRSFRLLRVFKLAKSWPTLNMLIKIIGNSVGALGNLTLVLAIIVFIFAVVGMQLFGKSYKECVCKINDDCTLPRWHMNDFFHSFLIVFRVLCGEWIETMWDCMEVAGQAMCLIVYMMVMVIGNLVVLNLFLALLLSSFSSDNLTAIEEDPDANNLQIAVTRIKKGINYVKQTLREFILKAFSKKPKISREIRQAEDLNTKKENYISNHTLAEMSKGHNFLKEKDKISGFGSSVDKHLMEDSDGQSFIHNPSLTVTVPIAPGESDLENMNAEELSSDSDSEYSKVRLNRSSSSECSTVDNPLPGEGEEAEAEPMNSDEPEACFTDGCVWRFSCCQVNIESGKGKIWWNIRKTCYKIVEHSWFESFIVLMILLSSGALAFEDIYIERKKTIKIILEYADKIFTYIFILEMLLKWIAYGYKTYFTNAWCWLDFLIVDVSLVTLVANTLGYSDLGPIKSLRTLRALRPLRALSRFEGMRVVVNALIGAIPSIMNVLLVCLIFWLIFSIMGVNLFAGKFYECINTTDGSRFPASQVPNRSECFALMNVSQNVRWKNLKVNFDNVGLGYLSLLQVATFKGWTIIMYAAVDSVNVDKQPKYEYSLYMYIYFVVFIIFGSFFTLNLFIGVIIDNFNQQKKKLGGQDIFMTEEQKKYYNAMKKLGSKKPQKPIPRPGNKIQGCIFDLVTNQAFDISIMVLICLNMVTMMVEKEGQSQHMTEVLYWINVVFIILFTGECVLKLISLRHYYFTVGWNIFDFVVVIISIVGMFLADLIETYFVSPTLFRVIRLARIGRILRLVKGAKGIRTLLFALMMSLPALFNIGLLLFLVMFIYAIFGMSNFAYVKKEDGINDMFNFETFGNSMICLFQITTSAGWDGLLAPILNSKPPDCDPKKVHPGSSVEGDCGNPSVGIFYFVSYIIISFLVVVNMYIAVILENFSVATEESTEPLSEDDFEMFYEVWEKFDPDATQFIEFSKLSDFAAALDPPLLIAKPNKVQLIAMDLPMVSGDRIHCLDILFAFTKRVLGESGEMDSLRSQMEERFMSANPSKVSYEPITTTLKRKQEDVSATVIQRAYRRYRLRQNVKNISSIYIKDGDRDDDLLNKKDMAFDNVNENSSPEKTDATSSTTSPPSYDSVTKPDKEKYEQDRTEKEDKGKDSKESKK

Row | SMILES | IC50 [µM]
1 | CS(=O)(=O)NC(=O)c1ccc(Oc2ccc(Cl)cc2)c(-c2cncc(C#N)c2)c1 [Example 44, 4-(4-chlorophenoxy)-3-(5-cyanopyridin-3-yl)-N-(methylsulfonyl)benzamide] | 17
2 | CS(=O)(=O)NC(=O)c1ccc(Oc2ccc(Cl)cc2)c(-c2cn[nH]c2)c1 [Example 30, 4-(4-chlorophenoxy)-N-(methylsulfonyl)-3-(1H-pyrazol-4-yl)benzamide] | 18
3 | Cc1ncc(-c2cc(C(=O)NS(C)(=O)=O)ccc2Oc2ccc(Cl)cc2)cn1 [Example 46, 4-(4-chlorophenoxy)-3-(2-methylpyrimidin-5-yl)-N-(methylsulfonyl)benzamide] | 151
4 | CS(=O)(=O)NC(=O)c1ccc(Oc2ccc(Cl)cc2)c(-c2cccc(OC(F)(F)F)c2)c1 [Example 28, 6-(4-chlorophenoxy)-N-(methylsulfonyl)-3′-(trifluoromethoxy)biphenyl-3-carboxamide] | 16
5 | CS(=O)(=O)NC(=O)c1ccc(Oc2ccc(Cl)cc2)c(-c2cccc(C(F)(F)F)c2)c1 [Example 13, 6-(4-chlorophenoxy)-N-(methylsulfonyl)-3′-(trifluoromethyl)biphenyl-3-carboxamide] | 24
6 | CS(=O)(=O)NC(=O)c1ccc(Oc2ccc(Cl)cc2)c(-c2cccc(Cl)c2)c1 [Example 22, 3′-chloro-6-(4-chlorophenoxy)-N-(methylsulfonyl)-biphenyl-3-carboxamide] | 15
7 | CS(=O)(=O)NC(=O)c1ccc(Oc2ccc(Cl)cc2)c(-c2cccc(C#N)c2)c1 [Example 26, 6-(4-chlorophenoxy)-3′-cyano-N-(methylsulfonyl)-biphenyl-3-carboxamide] | 17
8 | CS(=O)(=O)NC(=O)c1ccc(Oc2ccc(Cl)cc2)c(-c2cccnc2)c1 [Example 19, 4-(4-chlorophenoxy)-N-(methylsulfonyl)-3-pyridin-3-ylbenzamide] | 28
